Data taken from patent publication US20260007634A1, “PHARMACEUTICAL COMPOSITIONS FOR THE TREATMENT OF ALLERGIC DISEASES” (KINKI UNIVERSITY, priority 2022, published 2026).

How the values were obtained:
NIK = molecular target: T1, NIK (Mus musculus, UniProt Q9WUL6); experiment: BAFF-induced NIK activation in B cells (Western blotting, phospho-NIK); assay type: cell-based; conditions: for phospho-NIK band (immunoblotting): 100 ng/mL BAFF 1 h after 23 h compound, 100 μM mangiferin, 20 μM 1,3,5,6-tetrahydroxyxanthone, 10 μM others; for inhibition of NIK activity compared with mangiferin: general statement in the description, referring to the examples
T1 construct: Proteins were extracted with cell lysate and used as samples; endogenous in cells; host or cells: primary splenic B cells from 6-week-old male Balb/c mice
T1 sequence (Q9WUL6 whole entry): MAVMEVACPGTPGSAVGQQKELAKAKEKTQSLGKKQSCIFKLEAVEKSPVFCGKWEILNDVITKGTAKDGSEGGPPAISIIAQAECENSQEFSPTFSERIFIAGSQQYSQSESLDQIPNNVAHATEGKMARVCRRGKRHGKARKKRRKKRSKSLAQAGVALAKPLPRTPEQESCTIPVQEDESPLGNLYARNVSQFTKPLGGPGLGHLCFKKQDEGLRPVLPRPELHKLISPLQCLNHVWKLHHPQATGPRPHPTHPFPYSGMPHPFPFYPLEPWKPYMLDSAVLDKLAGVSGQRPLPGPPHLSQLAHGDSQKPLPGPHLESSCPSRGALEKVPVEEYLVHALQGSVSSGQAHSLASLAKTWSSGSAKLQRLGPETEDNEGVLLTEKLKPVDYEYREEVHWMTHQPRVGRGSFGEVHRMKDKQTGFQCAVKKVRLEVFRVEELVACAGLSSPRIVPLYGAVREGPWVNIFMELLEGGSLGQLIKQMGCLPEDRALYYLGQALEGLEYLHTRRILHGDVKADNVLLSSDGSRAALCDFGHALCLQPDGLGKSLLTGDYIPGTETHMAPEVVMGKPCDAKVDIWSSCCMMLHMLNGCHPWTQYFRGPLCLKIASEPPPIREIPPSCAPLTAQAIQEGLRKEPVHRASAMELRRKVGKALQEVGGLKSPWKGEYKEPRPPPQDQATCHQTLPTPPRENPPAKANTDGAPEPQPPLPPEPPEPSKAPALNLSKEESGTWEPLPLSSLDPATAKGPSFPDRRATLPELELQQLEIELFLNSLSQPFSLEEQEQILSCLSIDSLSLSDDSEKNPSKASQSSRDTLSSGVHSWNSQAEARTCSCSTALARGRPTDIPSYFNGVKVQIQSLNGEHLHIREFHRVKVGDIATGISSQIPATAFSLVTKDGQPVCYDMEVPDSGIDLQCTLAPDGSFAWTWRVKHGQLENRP
Protocol: (§1) Spleens were harvested from 6-week-old male Balb/c mice and B cells were isolated. After isolation, the cells were seeded in […] dish and cultured in RPMI 1640 medium for 1 day and used as control. In addition, B cells were seeded into 100 mm^2 dish, and after 1 day of culture, 100 ng/mL BAFF was added and cultured for 1 h. Furthermore, B cells were seeded in […] dish, and after 1 day of culture, 100 μM mangiferin, 10 μM mangiferin 8a, 10 μM norathyriol, 20 μM 1,3,5,6-tetrahydroxyxanthone, 10 μM xanthohydrol, 10 μM of α-mangostin, and 10 μM of γ-mangostin were added to B cells, and after 23 h, 100 ng/mL BAFF was added to each, and the cells were incubated for 1 h. All were incubated at 37° C. and 5% CO2.
(§2) Proteins were extracted with cell lysate and used as samples. Each sample was transferred to a PVDF membrane after SDSPAGE and assayed with anti-phospho-NIK, anti-NIK, anti-NF-κB p52, anti-NF-κB p65 and anti-Lamin antibodies.
(§3) The antibody species is indicated in the vertical direction. Specifically, in the case of anti-phospho-NIK antibody (described as “Phospho-NIK”), anti-NIK antibody (described as “NIK”), anti-NF-κB p52 antibody (described as “NF-κB p52 nuclear”), anti-NF-κB p65 antibody (described as “NF-κB p65 nuclear”) and anti-Lamin antibody (described as “Lamin”).

NF-κB p52 = experiment: BAFF-stimulated B cells, nuclear NF-κB p52 (Western blotting); assay type: cell-based, mouse; conditions: vs 100 ng/mL BAFF; 100 μM mangiferin, 20 μM 1,3,5,6-tetrahydroxyxanthone, 10 μM others
Protocol: as §1, §2, §3

[1] = system: B cells collected from mice; experiment: BAFF-induced differentiation into mature B cells (IgM/IgD flow cytometry); assay type: cell-based, mouse; conditions: 100 ng/mL BAFF, 10 days, 100 μM mangiferin, 20 μM 1,3,5,6-tetrahydroxyxanthone, 10 μM others; for population IgM positive and IgD positive (mature B cells): control 0, BAFF only 45.6; for population IgM positive and IgD negative (immature B cells): control 0.529, BAFF only 42.3; for population IgM negative and IgD negative (pre-B cells): control 99.5, BAFF only 11.7
Protocol: B cells collected from mice were cultured in RPMI 1640 medium for 1 day. Then, 100 μM mangiferin, 10 μM mangiferin 8a, 10 μM norathyriol, 20 μM 1,3,5,6-tetrahydroxyxanthone, 10 μM xanthohydrol, 10 μM α-mangostin, 10 μM of γ-mangostin were added to B cell, and after 1 day of culture, 100 ng/mL of BAFF was added, followed by 10 days of culture. After 10 days of culture, cells were stained with anti-IgM and anti-IgD antibodies, markers of B cells, and the expression of IgM and IgD was measured using BD LSRFortessa. Note that IgM negative and IgD negative indicates pre-B cells, IgM positive and IgD negative indicates immature B cells, and IgM positive and IgD positive indicates mature B cells.

[2] = system: B cells collected from mice; experiment: BAFF-induced differentiation into plasma cells (CD138 flow cytometry); assay type: cell-based, mouse; conditions: 100 ng/mL BAFF, 10 days; 100 μM mangiferin, 20 μM 1,3,5,6-tetrahydroxyxanthone, 10 μM others; vs BAFF-added group
Protocol: B cells collected from mice were cultured in RPMI 1640 medium for 1 day. Then, 100 μM mangiferin, 10 μM mangiferin 8a, 10 μM norathyriol, 20 μM 1,3,5,6-tetrahydroxyxanthone, 10 μM xanthohydrol, 10 μM α-mangostin, 10 μM of γ-mangostin were added to B cell, and after 1 day of culture, 100 ng/mL of BAFF was added, followed by 10 days of culture. After 10 days of culture, cells were stained with anti-CD138 antibody, a marker of plasma cells, and CD138 expression was measured using BD LSRFortessa.
In all figures, the horizontal axis represents the expression level of CD138 and the vertical axis represents the number of cells.

IgE antibody = experiment: Serum IgE antibody ELISA, atopic dermatitis mice; assay type: in vivo, mouse; conditions: day 7, topical application, control 1214, vehicle (MC903) 2588
Protocol: (§4) MC903 at 2 nM was applied to the right auricle of a 6-week-old male Balb/c (Japan SLC Inc.). Starting 8 h later, 5% norathyriol aqueous solution (1 mL of ethanol containing […] of norathyriol), betamethasone ointment, and delgocitinib ointment were applied to the auricle for 7 days. The measurement of auricular skin swelling was calculated by calipers. The day on which the first application of the compound was made was defined as day 0. Betamethasone and delgocitinib are currently in clinical use in atopic dermatitis and were used as control drugs in this example.
Serum was collected from mice on day 7 in Example 1, and IgE antibody production was measured by enzyme-linked immunosorbent assay (ELISA). This assay was performed using a mouse IgE antibody ELISA kit (R&D).

IL-4 = experiment: Auricular tissue IL-4 ELISA, atopic dermatitis mice; assay type: in vivo, mouse; conditions: day 7, topical application, control 56, vehicle 152
Protocol: as §4
The mouse IL-4 ELISA kit (R&D) was used for this measurement.

TSLP = experiment: Auricular tissue TSLP ELISA, atopic dermatitis mice; assay type: in vivo, mouse; conditions: day 7, topical application, control 317, vehicle 1533
Protocol: as §4
The mouse TSLP ELISA kit (R&D) was used for this measurement.

IL-5 = experiment: Auricular tissue IL-5 ELISA, atopic dermatitis mice; assay type: in vivo, mouse; conditions: day 7, topical application, control 15, vehicle 32
Protocol: as §4
The mouse IL-5 ELISA kit (R&D) was used for this measurement.

Row | Compound | phospho-NIK band (immunoblotting) (NIK) | inhibition of NIK activity compared with mangiferin (NIK) | nuclear NF-κB p52 band (immunoblotting) (NF-κB p52) | population IgM positive and IgD positive (mature B cells) [1] [%] | population IgM positive and IgD negative (immature B cells) [1] [%] | population IgM negative and IgD negative (pre-B cells) [1] [%] | CD138 expression [2] | amount of IgE antibody (IgE antibody) [ng/mL] | IL-4 secretion (IL-4) [pg/mL] | TSLP secretion (TSLP) [pg/mL] | IL-5 secretion (IL-5) [pg/mL]
1 | O=c1c2ccc(O)c(O)c2oc2cc(O)cc(O)c12 [1,3,5,6-tetrahydroxyxanthone] | fainter | more inhibition of NIK activity than mangiferin | fainter | 0 | 2.92 | 96.5 | significantly decreased CD138 expression | – | – | – | –
2 | C[C@H]1C[C@H]2[C@@H]3CCC4=CC(=O)C=C[C@]4(C)[C@@]3(F)[C@@H](O)C[C@]2(C)[C@@]1(O)C(=O)CO [betamethasone] | – | – | – | – | – | – | – | 1175 | 45 | 651 | 8
3 | C[C@H]1CN(C(=O)CC#N)[C@]12CCN(c1ncnc3[nH]ccc13)C2 [delgocitinib] | – | – | – | – | – | – | – | 1812 | 159 | 971 | 33
4 | O=c1c2cc(O)c(O)cc2oc2cc(O)c([C@@H]3O[C@H](CO)[C@@H](O)[C@H](O)[C@H]3O)c(O)c12 [mangiferin] | fainter | – | fainter | 0 | 3.24 | 95.8 | significantly decreased CD138 expression | – | – | – | –
5 | OC1c2ccccc2Oc2ccccc21 [xanthohydrol] | fainter | more inhibition of NIK activity than mangiferin | fainter | 0 | 3.64 | 96.3 | significantly decreased CD138 expression | – | – | – | –
6 | COc1c(O)cc2oc3cc(O)c(CC=C(C)C)c(O)c3c(=O)c2c1CC=C(C)C [α-mangostin] | fainter | more inhibition of NIK activity than mangiferin | fainter | 0.363 | 21.2 | 78.1 | significantly decreased CD138 expression | – | – | – | –
7 | CC(C)=CCc1c(O)cc2oc3cc(O)c(O)c(CC=C(C)C)c3c(=O)c2c1O [γ-mangostin] | fainter | more inhibition of NIK activity than mangiferin | fainter | 0.561 | 19.7 | 79.7 | significantly decreased CD138 expression | – | – | – | –
